Results reported in PubChem BioAssay (NCI).
Where “and” joins values, the source holds several entries; their conditions need not be identical. Identical values can stand only once.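 Briefly, cells in 96-well plates were exposed to five compound concentrations for 48 h, and endpoints were estimated by linear interpolation. GI50 is the concentration that inhibits growth by half. TGI: total growth inhibition.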

What was measured:
Assay in all cases: inhibition of tumour cell growth, NCI panel, 48 h
OVCAR-3 ovarian = tested on: OVCAR-3 ovarian
PC-3 prostate = tested on: PC-3 prostate
HCT-116 colon = tested on: HCT-116 colon
XF 498 CNS = tested on: XF 498 CNS
DMS 114 small cell lung = tested on: DMS 114 small cell lung
DMS 273 small cell lung = tested on: DMS 273 small cell lung
MDA-MB-435 = tested on: MDA-MB-435
SNB-75 CNS = tested on: SNB-75 CNS

Row | Structure (SMILES) | GI50 (OVCAR-3 ovarian) | TGI (OVCAR-3 ovarian) | GI50 (PC-3 prostate) | TGI (PC-3 prostate) | GI50 (HCT-116 colon) | TGI (HCT-116 colon) | TGI (XF 498 CNS) | TGI (DMS 114 small cell lung) | TGI (DMS 273 small cell lung) | GI50 (MDA-MB-435) | TGI (MDA-MB-435) | GI50 (SNB-75 CNS) | TGI (SNB-75 CNS)
1 | CC[C@H](C)[C@H](NC(=O)c1cnccn1)C(=O)N(C)[C@H](C[C@@H](OC(C)=O)c1nc(C(=O)N[C@@H](Cc2ccccc2)C[C@H](C)C(=O)OC)cs1)C(C)C | 665 nM | 1.62 µM | 1360 nM | > 33.3 µM | 1190 nM | > 33.3 µM |  |  |  |  |  |  | 
2 | CC(C)c1cccc(C(C)C)c1NC(=O)C(=O)C(C(=O)c1ccccc1-c1ccccc1)C1OC(=O)c2ccccc21 (configuration not stated) |  |  |  |  |  | 73.3 µM | 26 µM | 49.2 µM | 60 µM |  |  |  | 
3 | COc1cc(/C=C2\CN(C)CC3=C2Nc2nc(SC)[nH]c(=O)c2C3c2cc(OC)c(OC)c(OC)c2)cc(OC)c1OC (configuration not stated) | 2640 nM | 6.72 µM | 3630 nM | 32.4 µM | 1660 nM | 3.17 µM |  |  |  | 2510 nM | 8.46 µM | 7360 nM | 22.6 µM
4 | COc1ccc2nc(-c3ccccc3)cc(Nc3cccc(/C(C)=N\O)c3)c2c1 |  |  | 4720 nM | 26.3 µM | 2580 nM | > 100 µM |  |  |  | 2500 nM | 7.96 µM | 4490 nM | > 100 µM
5 | Cc1cc2c(cc1C)NC1=C(N2)OC(c2c[nH]c3ccc(COc4ccccc4)cc23)C1=O (configuration not stated) |  | > 100 µM |  | > 100 µM |  | > 100 µM |  |  |  |  | > 100 µM |  | 38.7 µM
6 | O=C(Nc1ccc(OC(F)(F)F)cc1)c1sccc1NCc1ccnc2ccccc12 | 4890 nM | > 100 µM | 3740 nM | > 83.3 µM | 2120 nM | > 100 µM |  |  |  | 2870 nM | 18.7 µM | 1880 nM | 26.5 µM
7 | Clc1ccc(COC(Cn2ccnc2)c2ccc(Cl)cc2Cl)cc1 (configuration not stated) | 2500 nM | 6.49 µM and 23.2 µM and 25.1 µM | 1800 nM | 8.78 µM and 23.4 µM and 21.9 µM | 1420 nM | 3.1 µM and 21.1 µM and 20.2 µM |  |  |  | 2910 nM | 11.7 µM and 24.4 µM and 24 µM | 4970 nM | 17.5 µM and 26.8 µM and 30.1 µM
8 | CC(CO)[C@H]1OC(=O)C=C2[C@@]13O[C@@H]3[C@H]1OC(=O)[C@@]3(C)[C@H]4O[C@H]4C[C@@]2(C)[C@@H]13 (some centres not stated) |  | > 30.1 µM |  | 23.1 µM |  | > 28 µM |  |  |  |  | 18.4 µM |  | 6.05 µM
9 | O=C(O)c1cc[c]([Hg][S]c2ncnc3nc[nH]c23)cc1 | 1880 nM | 19.9 µM | 8370 nM | 23.5 µM | 4890 nM | 22.3 µM |  |  |  | 3810 nM | 16.8 µM | 1450 nM | 19.4 µM
10 | Cc1cccc(NC(=O)c2sc3nc4c(cc3c2N)CCCC4)c1C | 285 nM | 0.871 µM | 468 nM | > 100 µM | 435 nM | > 100 µM |  |  |  | 115 nM | 0.391 µM | 173 nM | 
11 | N#CC(C#N)SCc1ccccc1 |  | > 100 µM |  | > 100 µM |  | 75.5 µM |  | 60.1 µM | > 100 µM |  | 35.7 µM |  | > 96 µM
12 | CCOC(=O)c1c(NC(=O)c2ccc(C(C)C)cc2)sc2c(CN(C)C)c(O)ccc12 | 3520 nM | 11.9 µM | 2180 nM | 5.71 µM | 1780 nM | 3.36 µM |  |  |  | 1770 nM | 3.37 µM | 1470 nM | 3.39 µM
13 | CC(=O)c1cccc(N(/C=C/C(=O)C(F)(F)F)CC(=O)c2ccc(Cl)cc2)c1 | > 100000 nM | > 100 µM | > 100000 nM | > 100 µM | > 100000 nM | > 100 µM |  |  |  | > 100000 nM | > 100 µM |  | 
14 | CC(C)(C)OC(=O)NCC(C#N)CNC(=O)OC(C)(C)C |  | > 100 µM |  | > 100 µM |  | > 100 µM |  |  |  |  | > 100 µM |  | 
15 | CSc1ccc(C2=Nn3c(nnc3-c3ccc(F)c(Cl)c3)SC2)cc1 | 5620 nM | 21 µM | 4670 nM | > 100 µM | 9850 nM | 23.4 µM |  |  |  | 1500 nM | 5.21 µM | 4670 nM | 16 µM
16 | CC1=C(C(=O)NC2CCCCC2)CC(C(=O)NC2CCCCC2)=C(C)N1 |  | > 100 µM |  | > 100 µM |  | > 100 µM |  |  |  |  | > 100 µM |  | 64.9 µM
17 | CC1(C)N=C(N)N=C(N)N1c1ccc(CCc2ccccc2)c(Cl)c1 | 281 nM | 12.4 µM | 91.6 nM | 12.1 µM | 34.7 nM | 14 µM |  |  |  | 52.8 nM | 15.7 µM | 517 nM | 12.7 µM
18 | CC1(C)CCC(C)(C)c2cc(C(=O)Nc3ccc(C(=O)O)cc3)ccc21 |  | 40.4 µM |  | 51.7 µM |  | 37.4 µM |  |  |  |  | > 74.3 µM |  | > 100 µM
19 | C[n+]1cc2c3c(ccc2c2ccc4cc5c(cc4c21)OCO5)OCO3 | 278 nM | 0.758 µM | 668 nM | 2.08 µM | 227 nM | 0.593 µM |  |  |  | 317 nM | 1.11 µM | 1010 nM | 2.17 µM
20 | C=C1C(=O)O[C@@H]2C[C@@]3(C)CC(=O)C=C(C)[C@@H]3C[C@H]12 |  | 19.9 µM |  | 36.3 µM |  | 20.2 µM |  |  |  |  | 30.5 µM |  | 39.6 µM
21 | Cc1ccc(C(=O)Nc2ccc(CN3CCN(C)CC3)c(C(F)(F)F)c2)cc1C#Cc1cnc(N)c2ccc(F)cc12 | 359 nM | 1.06 µM | 508 nM | 1.66 µM | 192 nM | 0.533 µM |  |  |  | 123 nM | 0.47 µM | 256 nM | 0.863 µM
22 | C[C@]12CC[C@@H]3c4ccc(O)c([N+](=O)[O-])c4CC[C@H]3[C@@H]1CC[C@@H]2NS(=O)(=O)c1ccc(C(F)(F)F)cc1 |  |  | 1650 nM | 4 µM | 1600 nM | 2.99 µM |  |  |  | 1740 nM | 3.63 µM | 1430 nM | 5.73 µM
23 | C#C[C@]1(O)CC[C@H]2[C@@H]3CC=C4c5nc(Nc6ccccn6)sc5CC[C@]4(C)[C@H]3CC[C@@]21C | 1430 nM | 3.29 µM | 489 nM | 3.99 µM | 1120 nM | 2.73 µM |  |  |  | 1550 nM | 4.45 µM |  | 
24 | COc1ccc(C2SC(N)=Nc3c2c(C)nn3C(=O)c2ccc(Cl)cc2)cc1OC (configuration not stated) |  | > 10 µM |  | > 10 µM |  | > 10 µM |  |  |  |  | > 10 µM |  | > 10 µM
